What was measured:
Experiment in all cases: GC-MS of decane overlay from E. coli expressing the synthase
Assay type in all cases: cell-based
[1] = molecular target: T1, α-isocomene synthase (MrTPS2; codon-optimized coMrTPS2) (Matricaria chamomilla, UniProt I6R4V5); conditions: main product alpha-isocomene with silphinene, modephene, beta-isocomene, caryophyllene, alpha-humulene; endogenous FPP supply, no FPP added
T1 construct: codon-optimized gene, untagged, plasmids pTrc99a / pBbE7a / prstA, expressed in E. coli DH1
T1 sequence (I6R4V5 1-546): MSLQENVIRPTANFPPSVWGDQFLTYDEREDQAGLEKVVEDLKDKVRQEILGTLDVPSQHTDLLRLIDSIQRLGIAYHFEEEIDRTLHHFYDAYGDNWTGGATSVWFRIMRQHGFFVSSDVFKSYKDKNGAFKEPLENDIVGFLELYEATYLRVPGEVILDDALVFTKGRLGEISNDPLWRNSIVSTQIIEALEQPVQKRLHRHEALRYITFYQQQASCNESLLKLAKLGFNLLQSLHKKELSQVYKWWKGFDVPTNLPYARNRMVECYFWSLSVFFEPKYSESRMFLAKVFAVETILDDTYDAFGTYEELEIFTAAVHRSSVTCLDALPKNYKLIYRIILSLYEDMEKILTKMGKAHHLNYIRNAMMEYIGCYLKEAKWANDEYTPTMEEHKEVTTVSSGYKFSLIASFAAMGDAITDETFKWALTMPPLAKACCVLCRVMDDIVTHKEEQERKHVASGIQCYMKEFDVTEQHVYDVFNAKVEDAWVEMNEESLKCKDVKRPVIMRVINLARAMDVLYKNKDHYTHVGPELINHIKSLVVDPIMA

[2] = molecular target: T2, epi-isozizaene synthase (EIZS; codon-optimized coEIZS) (Streptomyces coelicolor, UniProt Q9K499); conditions: product epi-isozizaene (single product); endogenous FPP supply, no FPP added
T2 construct: gene cyc1; codon-optimized gene, untagged, plasmids pTrc99a / pBbE7a / prstA, expressed in E. coli DH1
T2 sequence (Q9K499 1-361): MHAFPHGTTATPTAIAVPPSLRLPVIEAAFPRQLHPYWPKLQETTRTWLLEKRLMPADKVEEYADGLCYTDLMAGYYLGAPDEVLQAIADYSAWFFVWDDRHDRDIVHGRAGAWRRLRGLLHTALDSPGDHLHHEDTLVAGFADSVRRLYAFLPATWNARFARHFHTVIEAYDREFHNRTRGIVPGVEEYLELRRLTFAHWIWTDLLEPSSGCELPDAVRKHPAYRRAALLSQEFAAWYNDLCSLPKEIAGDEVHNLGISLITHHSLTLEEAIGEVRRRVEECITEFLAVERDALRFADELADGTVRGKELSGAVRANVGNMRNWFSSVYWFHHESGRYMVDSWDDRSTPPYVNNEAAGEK

[3] = molecular target: T3, pentalenene synthase (PentS; codon-optimized coPentS) (Streptomyces exfoliatus, UniProt Q55012); conditions: product pentalenene (single product); endogenous FPP supply, no FPP added
T3 construct: gene penA; codon-optimized gene, untagged, plasmids pTrc99a / pBbE7a / prstA, expressed in E. coli DH1; also in S. cerevisiae EPY300
T3 sequence (Q55012 2-337): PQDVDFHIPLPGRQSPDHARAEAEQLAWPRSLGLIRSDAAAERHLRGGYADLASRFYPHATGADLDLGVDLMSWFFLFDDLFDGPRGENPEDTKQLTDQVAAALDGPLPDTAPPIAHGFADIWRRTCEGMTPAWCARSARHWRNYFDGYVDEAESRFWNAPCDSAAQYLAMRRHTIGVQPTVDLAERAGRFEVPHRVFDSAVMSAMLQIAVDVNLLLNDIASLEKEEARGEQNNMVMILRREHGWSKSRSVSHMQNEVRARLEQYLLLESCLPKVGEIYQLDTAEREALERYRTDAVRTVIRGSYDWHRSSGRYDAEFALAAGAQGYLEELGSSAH

Structure (SMILES): CC(C)=CCC/C(C)=C/CC/C(C)=C/COP(=O)(O)OP(=O)(O)O [farnesyl diphosphate]
- GC-MS of decane overlay from E. coli expressing the synthase [1]: culture expressing coMrTPS2 produced a broad spectrum of compounds, including α-isocomene
- GC-MS of decane overlay from E. coli expressing the synthase [2]: cultures expressing coEIZS and coPentS produced single products
- GC-MS of decane overlay from E. coli expressing the synthase [3]: cultures expressing coEIZS and coPentS produced single products

Source: paper PMC6195743, “Renewable production of high density jet fuel precursor sesquiterpenes from Escherichia coli” (Biotechnology for Biofuels, 2018)
